One experiment has as its target memapsin 2 (Homo sapiens, UniProt P56817). The experiment in a line: Inhibition of memapsin 2 catalytic activity (Ki). The experiment is classed as biochemical. Conditions: memapsin 2, pH 4, 37° C.; read-out: M2K. The method, boiled down:
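Run at 37 °C and pH 4: compound and enzyme pre-incubated 20 min before FS-2 fluorogenic substrate started hydrolysis,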

For another experiment, the target named is cathepsin D (Homo sapiens, UniProt P07339). As to the kind of experiment: Inhibition of cathepsin D catalytic activity (Ki). Conditions: pH 4.0, 37° C., read-out: CDK. The class given is biochemical. The protocol: A substrate peptide NH3-ELDLAVEFWHDR-CO2 (SEQ ID NO.:1) (used for inhibition assay of memapsin 2, memapsin 1, and cathepsin D) was dissolved at 2 mg/ml in DMSO and diluted 1:100 in 0.1 M sodium acetate, pH 4.0 just prior to assay. Inhibitor dissolved in DMSO was diluted into 0.1 M sodium acetate, pH 4.0 (1:100 dilution). A […] aliquot of the inhibitor solution in pH 4 buffer was combined with […] of 0.1 M sodium acetate containing 100-200 nM of memapsin 1, memapsin 2, or cathepsin D. Following a pre-incubation at 37° C., the proteolytic assay was initated by addition of […] of the substrate diluted into pH 4 buffer, and incubation continued at 37° C. Aliquots were removed at time intervals, and combined with an equal volume of MALDI-TOF matrix (α-hydroxycinnamic acid in acetone, 20 mg/ml) and immediately spotted in duplicate onto a stainless-steel MALDI sample plate. MALDI-TOF mass spectrometry was performed on a PE Biosystems Voyager DE instrument at the Molecular Biology Resource Center on campus. The instrument was operated at 25,000 accelerating volts in positive mode with a 150 ns delay. Ions with a mass-to-charge ratio (m/z) were detected in the range of 650-2000 atomic mass units. Data were analyzed by the Voyager Data Explorer module to obtain ion intensity data for mass species of substrates and corresponding products in a given mixture. Relative product formation was calculated as the ratio of signal intensity of the product to the sum of signal intensities of both product and the corresponding substrate. Relative product formed per unit time was obtained from non-linear regression analysis of the data representing the initial 15% formation of product using the model: 1−e^−kT, where k was the relative hydrolytic rate constant and T was time in seconds. Alternatively, relative hydrolytic rates were determined using a fluorogenic cleavage assay (Ermolieff, J. et al., Biochemistry, 39: 12450-12456 (2000)). Initial rates from either method were expressed relative to uninhibited controls and the inhibition constant Ki was determined by a non-linear fit to a tight-binding model of competitive inhibition (Bieth, J., Bayer-Symposium V: Proteinase Inhibitors, pp 463-469, Spinger-Varlag, Berlin (1994)). Results are shown in Table 1 above (M2K, CDK, and M1K columns represent, respectively, the K1 values obtained for memapsin 2, cathepsin D and memapsin 1).
Sequence of cathepsin D (P07339 65-412, species assumed): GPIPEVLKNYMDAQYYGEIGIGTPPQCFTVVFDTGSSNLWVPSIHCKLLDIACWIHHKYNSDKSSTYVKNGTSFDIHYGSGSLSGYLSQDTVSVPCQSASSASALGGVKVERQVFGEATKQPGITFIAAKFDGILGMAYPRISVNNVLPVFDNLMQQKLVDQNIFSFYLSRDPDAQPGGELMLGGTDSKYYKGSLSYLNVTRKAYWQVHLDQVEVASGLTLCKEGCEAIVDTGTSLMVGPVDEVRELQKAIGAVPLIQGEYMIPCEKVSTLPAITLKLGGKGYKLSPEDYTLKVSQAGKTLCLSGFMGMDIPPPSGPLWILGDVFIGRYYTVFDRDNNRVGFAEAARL

Experiment [1] relates to Aβ production in Chinese hamster ovary cells that over-express human APP695 with the London and Swedish mutations. The experiment in a line: Cellular Aβ IC50 determination (Aβ40 sandwich ELISA). Conditions: Cricetulus griseus, CHO, 24 h, read-out: Cell, Aβ40, CHO cells over-expressing human APP695 (London and Swedish mutations), 24 h. On the technique in general: An ELISA detects its analyte on a solid surface through an enzyme-linked reagent.

Consider 17 compounds from patent US7504420B2, “Compounds which inhibit beta-secretase activity and methods of use” (CoMentis, Inc., priority 2005, dated 2009).

pIC50, pKi: −log10 of the molar value. Bounds are passed on as bounds.

Sequence of memapsin 2 (P56817 46-501): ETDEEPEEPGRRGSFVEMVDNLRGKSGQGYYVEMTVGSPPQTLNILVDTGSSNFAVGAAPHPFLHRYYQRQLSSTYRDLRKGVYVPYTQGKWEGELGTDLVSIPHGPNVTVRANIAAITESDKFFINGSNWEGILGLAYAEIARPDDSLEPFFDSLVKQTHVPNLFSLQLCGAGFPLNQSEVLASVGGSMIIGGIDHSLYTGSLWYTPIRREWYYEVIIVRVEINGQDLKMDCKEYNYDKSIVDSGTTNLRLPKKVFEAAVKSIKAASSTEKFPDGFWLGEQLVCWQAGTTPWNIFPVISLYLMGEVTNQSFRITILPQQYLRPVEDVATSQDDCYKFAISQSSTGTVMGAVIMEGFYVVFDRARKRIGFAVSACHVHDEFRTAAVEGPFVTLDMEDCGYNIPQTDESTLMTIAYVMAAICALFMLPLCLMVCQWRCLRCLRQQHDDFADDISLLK

As to `COc1cccc(CNCC(O)C(Cc2ccccc2)NC(=O)c2cc(C(=O)NC(C)c3ccccc3)cc(N(C)S(C)(=O)=O)c2)c1F` (stereo not drawn) [N1-(4-(2-fluoro-3-methoxybenzylamino)-3-hydroxy-1-phenylbutan-2-yl)-5-(N-methylmethylsulfonamido)-N3-(1-phenylethyl)isophthalamide], the pKi on memapsin 2 and at cathepsin D was > 6.52 in each case. The pIC50 in experiment [1] was > 6.00.

In the case of `CC(C)c1cncc(CNCC(O)C(Cc2ccccc2)NC(=O)c2cc(C(=O)NC(C)c3ccccc3)cc(N(C)S(C)(=O)=O)c2)c1` (stereo not drawn) [N1-(3-hydroxy-4-((5-isopropylpyridin-3-yl)methylamino)-1-phenylbutan-2-yl)-5-(N-methylmethylsulfonamido)-N3-(1-phenylethyl)isophthalamide], the pKi at memapsin 2 and on cathepsin D was > 6.52 each time. Further, in experiment [1], the pIC50 is > 6.00.

As for `CC(NC(=O)c1cc(C(=O)NC(Cc2ccccc2)C(O)CNCc2cccc(CF)c2)cc(N(C)S(C)(=O)=O)c1)c1ccccc1` (stereo not drawn) [N1-(4-(3-(fluoromethyl)benzylamino)-3-hydroxy-1-phenylbutan-2-yl)-5-(N-methylmethylsulfonamido)-N3-(1-phenylethyl)isophthalamide], the pKi on memapsin 2 and at cathepsin D was > 6.52 in each case. The pIC50 in experiment [1] is > 6.00.

On to `CC(NC(=O)c1cc(C(=O)NC(Cc2ccccc2)C(O)CNCCN2CCOCC2)cc(N(C)S(C)(=O)=O)c1)c1ccccc1` (stereo not drawn) [N1-(3-hydroxy-4-(2-morpholinoethylamino)-1-phenylbutan-2-yl)-5-(N-methylmethylsulfonamido)-N3-(1-phenylethyl)isophthalamide], for which the pKi at memapsin 2 is 6.30 to 6.52; at cathepsin D it was < 6.30. Further, in experiment [1], the pIC50 is 5.30 to 6.00.

For the compound `CC(NC(=O)c1cc(C(=O)NC(Cc2ccccc2)C(O)CNCc2cnc3ccccc3c2)cc(N(C)S(C)(=O)=O)c1)c1ccccc1` (stereo not drawn) [N1-(3-hydroxy-1-phenyl-4-(quinolin-3-ylmethylamino)butan-2-yl)-5-(N-methylmethylsulfonamido)-N3-(1-phenylethyl)isophthalamide], the pKi at memapsin 2 and on cathepsin D was > 6.52 each time. The pIC50 in experiment [1] is > 6.00.

With `COc1cccc(CNCC(O)C(Cc2ccccc2)NC(=O)c2cc(C(=O)NCc3cncc(O)c3)cc(N(C)S(C)(=O)=O)c2)c1` (stereo not drawn) [N1-(3-hydroxy-4-(3-methoxybenzylamino)-1-phenylbutan-2-yl)-N3-((5-hydroxypyridin-3-yl)methyl)-5-(N-methylmethylsulfonamido)isophthalamide], the pKi at memapsin 2 and on cathepsin D was < 6.30 each time. In experiment [1], the pIC50 is > 6.00.

Regarding `CC(NC(=O)c1cc(C(=O)NC(Cc2ccccc2)C(O)CNCC2CCN(C(=O)OCc3ccccc3)CC2)cc(N(C)S(C)(=O)=O)c1)c1ccccc1` (stereo not drawn) [benzyl 4-((2-hydroxy-3-(3-(N-methylmethylsulfonamido)-5-(1-phenylethylcarbamoyl)benzamido)-4-phenylbutylamino)methyl)piperidine-1-carboxylate], the pKi at memapsin 2 and on cathepsin D was > 6.52 in each case. The pIC50 in experiment [1] is 5.30 to 6.00.

In the case of `COc1cccc(CCNCC(O)C(Cc2ccccc2)NC(=O)c2cccc(C(=O)N(C)Cc3nc(C)cs3)c2)c1` (stereo not drawn) [N1-(3-hydroxy-4-(3-methoxyphenethylamino)-1-phenylbutan-2-yl)-N3-methyl-N3-((4-methylthiazol-2-yl)methyl)isophthalamide], the results for the pKi on memapsin 2 and at cathepsin D were < 6.30 and 6.30 to 6.52, respectively. In addition, the pIC50 in experiment [1] was < 5.30.

With `Cc1cc(CNCC(O)C(Cc2ccccc2)NC(=O)c2cccc(C(=O)N(C)Cc3nc(C)cs3)c2)on1` (stereo not drawn) [N1-(3-hydroxy-4-((3-methylisoxazol-5-yl)methylamino)-1-phenylbutan-2-yl)-N3-methyl-N3-((4-methylthiazol-2-yl)methyl)isophthalamide], the pKi at memapsin 2 is > 6.52; at cathepsin D, < 6.30. Also, the pIC50 in experiment [1] was < 5.30.

Turning to `COc1cccc(CNCC(O)C(Cc2ccccc2)NC(=O)c2cccc(C(=O)N(C)Cc3nc(C)cs3)c2F)c1` (stereo not drawn) [2-fluoro-N1-(3-hydroxy-4-(3-methoxybenzylamino)-1-phenylbutan-2-yl)-N3-methyl-N3-((4-methylthiazol-2-yl)methyl)isophthalamide], the results for the pKi on memapsin 2 and on cathepsin D were < 6.30 and > 6.52, respectively. In addition, in experiment [1], the pIC50 was 5.30 to 6.00.

With `CC(NC(=O)c1cc(C(=O)NC(Cc2ccccc2)C(O)CNCc2cnccn2)cc(N(C)S(C)(=O)=O)c1)c1ccccc1` (stereo not drawn) [N1-(3-hydroxy-1-phenyl-4-(pyrazin-2-ylmethylamino)butan-2-yl)-5-(N-methylmethylsulfonamido)-N3-(1-phenylethyl)isophthalamide], the pKi on memapsin 2 was > 6.52; at cathepsin D, < 6.30. Further, the pIC50 in experiment [1] was > 6.00.

With `COc1cccc(CNCC(O)C(Cc2ccccc2)NC(=O)c2cc(C(=O)N(C)Cc3nc(C)cs3)cc(N(C)S(C)(=O)=O)c2)c1` (stereo not drawn) [N1-(3-hydroxy-4-(3-methoxybenzylamino)-1-phenylbutan-2-yl)-N3-methyl-5-(N-methylmethylsulfonamido)-N3-((4-methylthiazol-2-yl)methyl)isophthalamide], the pKi at memapsin 2 and at cathepsin D was > 6.52 each time. In experiment [1], the pIC50 was > 6.00.

Consider `CCc1cccc(CNCC(O)C(Cc2ccccc2)NC(=O)c2cc(C(=O)NC(C)c3ccccc3)cc(N(C)S(C)(=O)=O)c2)c1` (stereo not drawn) [N1-(4-(3-ethylbenzylamino)-3-hydroxy-1-phenylbutan-2-yl)-5-(N-methylmethylsulfonamido)-N3-(1-phenylethyl)isophthalamide], for which the pKi at memapsin 2 and at cathepsin D was > 6.52 in each case. The pIC50 in experiment [1] is > 6.00.

Take `CC(NC(=O)c1cc(C(=O)NC(Cc2ccccc2)C(O)CNCC2CCCNC2)cc(N(C)S(C)(=O)=O)c1)c1ccccc1` (stereo not drawn) [N1-(3-hydroxy-1-phenyl-4-(piperidin-3-ylmethylamino)butan-2-yl)-5-(N-methylmethylsulfonamido)-N3-(1-phenylethyl)isophthalamide]: the pKi on memapsin 2 and on cathepsin D was < 6.30 in each case. The pIC50 in experiment [1] was < 5.30.

For the compound `Cc1csc(CN(C)C(=O)c2cccc(C(=O)NC(Cc3ccccc3)C(O)CNCc3cc(C)on3)c2)n1` (stereo not drawn) [N1-(3-hydroxy-4-((5-methylisoxazol-3-yl)methylamino)-1-phenylbutan-2-yl)-N3-methyl-N3-((4-methylthiazol-2-yl)methyl)isophthalamide], the pKi at memapsin 2 and at cathepsin D was 6.30 to 6.52 throughout. Also, the pIC50 in experiment [1] is 5.30 to 6.00.

`Cc1csc(CN(C)C(=O)c2cccc(C(=O)NC(Cc3ccccc3)C(O)CNCCN3CCCC3)c2)n1` (stereo not drawn) [N1-(3-hydroxy-1-phenyl-4-(2-(pyrrolidin-1-yl)ethylamino)butan-2-yl)-N3-methyl-N3-((4-methylthiazol-2-yl)methyl)isophthalamide]: the pKi at memapsin 2 and at cathepsin D was < 6.30 each time. Besides, the pIC50 in experiment [1] was < 5.30.

Take `COc1cccc(CNCC(O)C(Cc2ccccc2)NC(=O)c2cc(C(=O)NC(C)c3ccccc3)c(C)cc2C)c1` (stereo not drawn) [N1-(3-hydroxy-4-(3-methoxybenzylamino)-1-phenylbutan-2-yl)-4,6-dimethyl-N3-(1-phenylethyl)isophthalamide]: the pKi was 6.30 to 6.52 on memapsin 2 and > 6.52 at cathepsin D. Further, the pIC50 in experiment [1] was > 6.00.
